≈ marks a conversion by molar mass, not a printed value.
Assays:
[1] = tested on: TK-10; test: Cytotoxicity against human TK10 cells after 48 hrs by sulforhodamine B assay; format: functional; details: for GI50 / TGI / CC50: Homo sapiens, TK-10, 48 h; for CC50: read-out: LC50 (the source's name)
[2] = tested on: UACC-62; test: Cytotoxicity against human UACC62 cells after 48 hrs by sulforhodamine B assay; format: functional; details: for GI50 / TGI / CC50: Homo sapiens, UACC-62, 48 h; for CC50: read-out: LC50 (the source's name)
[3] = physchem; details: octanol/phosphate buffered saline
Description: Octanol-phosphate buffered saline distribution coefficient, log D of the compound at 2 mg after 48 hrs by HPLC analysis

[4] = tested on: Plasmodium falciparum; test: Antimalarial activity against asexual erythrocyte stages of chloroquine-resistant Plasmodium falciparum Dd2; format: functional, organism-based
[5] = tested on: Plasmodium falciparum; test: Antimalarial activity against asexual erythrocyte stages of chloroquine-sensitive Plasmodium falciparum D10; format: functional, organism-based
[6] = Selectivity index, ratio of IC50 for CHO cells to IC50 for chloroquine-sensitive Plasmodium falciparum D10; format: toxicity, cell-based; details: hamster, read-out: Ratio IC50
[7] = Aqueous solubility of the compound in phosphate buffer at pH 5.5 after 24 hrs by HPLC analysis; format: physicochemical
[8] = tested on: CHO; test: Cytotoxicity against CHO cells by MTT assay; format: cell-based; details: Cricetulus griseus
[9] = tested on: Plasmodium falciparum; test: Resistant index, ratio of IC50 for chloroquine-resistant Plasmodium falciparum Dd2 to IC50 for chloroquine-sensitive Plasmodium falciparum D10; format: functional
[10] = tested on: MCF7; test: Cytotoxicity against human MCF7 cells after 48 hrs by sulforhodamine B assay; format: functional; details: for GI50 / TGI / CC50: Homo sapiens, MCF7, 48 h; for CC50: read-out: LC50 (the source's name)

Row | Structure (SMILES) | LC100 [1] [µM] | GI50 [1] [nM] | TGI [1] [nM] | CC50 [1] [nM] | LC100 [2] [µM] | GI50 [2] [nM] | TGI [2] [nM] | CC50 [2] [nM] | logD at 48 h [3] | IC50 [4] [nM] | IC50 [5] [nM] | selectivity ratio [6] | solubility at 24 h [7] [mM] | IC50 [8] [nM] | Ratio IC50 [9] | LC100 [10] [µM] | GI50 [10] [nM] | TGI [10] [nM] | CC50 [10] [nM]
1 | CN(CCCNc1ccnc2cc(Cl)ccc12)CCCNc1ccnc2cc(Cl)ccc12 | 45.12 | 540 | 1000 | 5610 | >100 | 360 | 640 | 920 | 0.29 | 71.1 | 37.4 | 211 | 32.9 (≈ 15.4 mg/mL) | 7800 | 1.9 | >100 | 390 | 690 | 1200
2 | c1ccc2c(c1)nc(NCCNCCNc1nc3ccccc3n3cccc13)c1cccn12 |  |  |  |  |  |  |  |  | 0.39 | 1900 | 554 |  | 27.5 (≈ 12 mg/mL) |  | 3.4 |  |  |  | 
3 | Clc1ccc2c(NCCNCCNCCNc3ccnc4cc(Cl)ccc34)ccnc2c1 | >100 | 5890 | 5360 | 7710 | >100 | 2870 | 5300 | 7740 | 0.28 | 35.5 | 87.7 | 93 | 38.7 (≈ 18.2 mg/mL) | 8010 | 0.4 | >100 | 760 | 3530 | 7370
4 | Clc1ccc2c(NCCCNCCNCCCNc3ccnc4cc(Cl)ccc34)ccnc2c1 | >100 | 2100 | 4740 | 7380 | >100 | 1060 | 4090 | 7110 | 0.3 | 49.5 | 129 | 102 | 18.9 (≈ 9.42 mg/mL) | 13000 | 0.4 | >100 | 380 | 1650 | 6430
5 | Cc1cccc2nccc(NCCNCCNc3ccnc4cccc(C)c34)c12 |  |  |  |  |  |  |  |  | 0.05 | 507 | 741 |  | 29.5 (≈ 11.4 mg/mL) |  | 0.7 |  |  |  | 
6 | Cc1cccc2nccc(NCCCNCCNc3ccnc4cccc(C)c34)c12 |  |  |  |  |  |  |  |  | 0.32 | 105 | 214 |  | 28.2 (≈ 11.3 mg/mL) |  | 0.5 |  |  |  | 
7 | Cc1cccc2nccc(NCCCNCCCNc3ccnc4cccc(C)c34)c12 |  |  |  |  |  |  |  |  | 0.14 | 80.2 | 129 | 1024 | 27.9 (≈ 11.5 mg/mL) | 132000 | 0.6 |  |  |  | 
8 | Cc1cccc2nccc(NCCCN(C)CCCNc3ccnc4cccc(C)c34)c12 |  |  |  |  |  |  |  |  | 0.16 | 1910 | 185 |  | 31.2 (≈ 13.3 mg/mL) |  | 10.4 |  |  |  | 
9 | Cc1cccc2nccc(NCCNCCNCCNc3ccnc4cccc(C)c34)c12 |  |  |  |  |  |  |  |  | 0.4 | 1100 | 1420 |  | 38.9 (≈ 16.7 mg/mL) |  | 0.8 |  |  |  | 
10 | Cc1cccc2nccc(NCCCNCCNCCCNc3ccnc4cccc(C)c34)c12 |  |  |  |  |  |  |  |  | 0.34 | 608 | 922 | 187 | 36.5 (≈ 16.7 mg/mL) | 174000 | 0.7 |  |  |  | 
11 | c1ccc2c(c1)nc(NCCCNCCNc1nc3ccccc3n3cccc13)c1cccn12 |  |  |  |  |  |  |  |  | 0.34 | 1380 | 199 | 14 | 28.6 (≈ 12.8 mg/mL) | 2800 | 6.9 |  |  |  | 
12 | c1ccc2c(c1)nc(NCCCNCCCNc1nc3ccccc3n3cccc13)c1cccn12 |  |  |  |  |  |  |  |  | 0.32 | 356 | 75.3 | 51 | 24.1 (≈ 11.2 mg/mL) | 3800 | 4.7 |  |  |  | 
13 | c1ccc2c(c1)nc(NCCNCCNCCNc1nc3ccccc3n3cccc13)c1cccn12 |  |  |  |  |  |  |  |  | -0.02 | 4170 | 1800 | 4.5 | 34 (≈ 16.3 mg/mL) | 8100 | 2.3 |  |  |  | 
14 | Clc1ccc2c(NCCCNCCNc3ccnc4cc(Cl)ccc34)ccnc2c1 | >100 | 1230 | 4250 | 7270 | >100 | 2070 | 4890 | 7720 | 0.3 | 56.4 | 66.1 | 47 | 23.5 (≈ 10.4 mg/mL) | 3100 | 0.9 | >100 | 600 | 2790 | 7210
15 | Clc1ccc2c(NCCCNCCCNc3ccnc4cc(Cl)ccc34)ccnc2c1 |  |  |  |  |  |  |  |  | 0.28 |  |  |  | 28.9 (≈ 13.1 mg/mL) |  |  |  |  |  | 
16 | Clc1ccc2c(NCCNCCNc3ccnc4cc(Cl)ccc34)ccnc2c1 |  |  |  |  |  |  |  |  | 0.3 |  |  |  | 32 (≈ 13.6 mg/mL) |  |  |  |  |  | 
17 | CN(CCCNc1nc2ccccc2n2cccc12)CCCNc1nc2ccccc2n2cccc12 |  |  |  |  |  |  |  |  | 0.36 | 724 | 112 | 39 | 30.2 (≈ 14.4 mg/mL) | 4300 | 6.5 |  |  |  | 
18 | CC[C@H]1CN2CCc3cc(OC)c(OC)cc3[C@@H]2C[C@@H]1C[C@H]1NCCc2cc(OC)c(OC)cc21 [EMETINE] |  |  |  |  |  |  |  |  |  |  |  |  |  | 300 |  |  |  |  | 

Source: ChEMBL document CHEMBL2062520, “Synthesis and in vitro antimalarial activity of a series of bisquinoline and bispyrrolo[1,2a]quinoxaline compounds” (Eur J Med Chem, 2012)
